In ChEMBL document CHEMBL3045851, “Design, synthesis, and in vitro antimicrobial activities of novel azetidinyl-3-quinazolin-4-one hybrids” (2012):
Values after ≈ are worked out from the molar mass of the structure shown.

Tests used:
Assay type in all cases: functional
Bacillus subtilis = test: Antibacterial activity against Bacillus subtilis MTCC 441 after overnight incubation by broth dilution method
Streptococcus pyogenes = test: Antibacterial activity against Streptococcus pyogenes MTCC 442 after overnight incubation by broth dilution method
Staphylococcus aureus = test: Antibacterial activity against Staphylococcus aureus MTCC 96 after overnight incubation by broth dilution method
Salmonella typhimurium = test: Antibacterial activity against Salmonella enterica subsp. enterica serovar Typhimurium MTCC 98 after overnight incubation by broth dilution method
Klebsiella pneumoniae = test: Antibacterial activity against Klebsiella pneumoniae MTCC 109 after overnight incubation by broth dilution method
Pseudomonas aeruginosa = test: Antibacterial activity against Pseudomonas aeruginosa MTCC 1688 after overnight incubation by broth dilution method
[1] = tested on: Mycobacterium tuberculosis; test: Growth inhibition of Mycobacterium tuberculosis H37Rv MTCC 200 at 50 ug/ml after 28 days by Lowenstein-Jensen method; details: H37Rv MTCC 200, 672 h, read-out: GI
Aspergillus clavatus = test: Antifungal activity against Aspergillus clavatus MTCC 1323 by broth microdilution method
Aspergillus niger = test: Antifungal activity against Aspergillus niger MTCC 282 by broth microdilution method
Candida albicans = test: Antifungal activity against Candida albicans MTCC 227 by broth microdilution method
Escherichia coli = test: Antibacterial activity against Escherichia coli MTCC 443 after overnight incubation by broth dilution method
[2] = tested on: Mycobacterium tuberculosis; test: Growth inhibition of Mycobacterium tuberculosis H37Rv MTCC 200 at 250 ug/ml after 28 days by Lowenstein-Jensen method; details: H37Rv MTCC 200, 672 h, read-out: GI
[3] = tested on: Mycobacterium tuberculosis; test: Growth inhibition of Mycobacterium tuberculosis H37Rv MTCC 200 at 100 ug/ml after 28 days by Lowenstein-Jensen method; details: H37Rv MTCC 200, 672 h, read-out: GI
[4] = tested on: Mycobacterium tuberculosis; test: Growth inhibition of Mycobacterium tuberculosis H37Rv MTCC 200 at 500 ug/ml after 28 days by Lowenstein-Jensen method; details: H37Rv MTCC 200, 672 h, read-out: GI
[5] = tested on: Mycobacterium tuberculosis; test: Growth inhibition of Mycobacterium tuberculosis H37Rv MTCC 200 at 259 ug/ml after 28 days by Lowenstein-Jensen method; details: H37Rv MTCC 200, 672 h, read-out: GI
[6] = tested on: Mycobacterium tuberculosis; test: Growth inhibition of Mycobacterium tuberculosis H37Rv MTCC 200 at 40 ug/ml after 28 days by Lowenstein-Jensen method
[7] = tested on: Mycobacterium tuberculosis; test: Growth inhibition of Mycobacterium tuberculosis H37Rv MTCC 200 at 270 ug/ml after 28 days by Lowenstein-Jensen method; details: H37Rv MTCC 200, 672 h, read-out: GI
[8] = tested on: Mycobacterium tuberculosis; test: Growth inhibition of Mycobacterium tuberculosis H37Rv MTCC 200 at 62.5 ug/ml after 28 days by Lowenstein-Jensen method; details: H37Rv MTCC 200, 672 h, read-out: GI
[9] = tested on: Mycobacterium tuberculosis; test: Growth inhibition of Mycobacterium tuberculosis H37Rv MTCC 200 at 0.2 ug/ml after 28 days by Lowenstein-Jensen method; details: H37Rv MTCC 200, 672 h, read-out: GI

Molecule | MIC99 (Bacillus subtilis) [µg/mL] | MIC99 (Streptococcus pyogenes) [µg/mL] | MIC99 (Staphylococcus aureus) [µg/mL] | MIC99 (Salmonella typhimurium) [µg/mL] | MIC99 (Klebsiella pneumoniae) [µg/mL] | MIC99 (Pseudomonas aeruginosa) [µg/mL] | inhibition of growth at 50 µg/mL [1] [%] | MIC99 (Aspergillus clavatus) [µg/mL] | MIC99 (Aspergillus niger) [µg/mL] | MIC99 (Candida albicans) [µg/mL] | MIC99 (Escherichia coli) [µg/mL] | inhibition of growth at 250 µg/mL [2] [%] | inhibition of growth at 100 µg/mL [3] [%] | inhibition of growth at 500 µg/mL [4] [%] | inhibition of growth at 259 µg/mL [5] [%] | growth inhibition (GI) [6] [%] | inhibition of growth at 270 µg/mL [7] [%] | inhibition of growth at 62.5 µg/mL [8] [%] | inhibition of growth at 0.2 µg/mL [9] [%] | inhibition of growth at 40 µg/mL ([6]; H37Rv MTCC 200, 672 h, read-out: GI) [%]
O=C(Nn1c(CNN2C(=O)C(Cl)C2c2ccc([N+](=O)[O-])cc2)nc2ccccc2c1=O)c1ccncc1 (stereo unspecified) | 100 (≈ 192 µM) | 125 (≈ 240 µM) | 100 (≈ 192 µM) | 200 (≈ 385 µM) | 200 (≈ 385 µM) | 150 (≈ 289 µM) | 99 | > 1000 | > 1000 | 500 (≈ 962 µM) | 150 (≈ 289 µM) | – | – | – | – | – | – | – | – | –
O=C(N[C@H](CO)[C@H](O)c1ccc([N+](=O)[O-])cc1)C(Cl)Cl [CHLORAMPHENICOL] | – | 50 (≈ 155 µM) | 50 (≈ 155 µM) | 50 (≈ 155 µM) | 50 (≈ 155 µM) | 50 (≈ 155 µM) | – | – | – | – | 50 (≈ 155 µM) | – | – | – | – | – | – | – | – | –
O=C(Nn1c(CNN2C(=O)C(Cl)C2c2ccccc2O)nc2ccccc2c1=O)c1ccncc1 (stereo unspecified) | 250 (≈ 509 µM) | 250 (≈ 509 µM) | 250 (≈ 509 µM) | 125 (≈ 255 µM) | 250 (≈ 509 µM) | 125 (≈ 255 µM) | – | 1000 (≈ 2040 µM) | 1000 (≈ 2040 µM) | 250 (≈ 509 µM) | 100 (≈ 204 µM) | 97 | – | – | – | – | – | – | – | –
O=C(Nn1c(CNN2C(=O)C(Cl)C2c2ccc(Br)cc2)nc2ccccc2c1=O)c1ccncc1 (stereo unspecified) | 200 (≈ 361 µM) | 200 (≈ 361 µM) | 200 (≈ 361 µM) | 100 (≈ 181 µM) | 500 (≈ 903 µM) | 200 (≈ 361 µM) | – | 500 (≈ 903 µM) | 1000 (≈ 1810 µM) | 500 (≈ 903 µM) | 62.5 (≈ 113 µM) | – | 97 | – | – | – | – | – | – | –
O=C(Nn1c(CNN2C(=O)C(Cl)C2c2ccccc2)nc2ccccc2c1=O)c1ccncc1 (stereo unspecified) | 100 (≈ 211 µM) | 250 (≈ 526 µM) | 250 (≈ 526 µM) | 200 (≈ 421 µM) | 200 (≈ 421 µM) | 125 (≈ 263 µM) | – | 500 (≈ 1050 µM) | 500 (≈ 1050 µM) | 1000 (≈ 2110 µM) | 200 (≈ 421 µM) | – | – | 98 | – | – | – | – | – | –
CCn1cc(C(=O)O)c(=O)c2cc(F)c(N3CCNCC3)cc21 [NORFLOXACIN] | – | 10 (≈ 31.3 µM) | 10 (≈ 31.3 µM) | 10 (≈ 31.3 µM) | 10 (≈ 31.3 µM) | 10 (≈ 31.3 µM) | – | – | – | – | 10 (≈ 31.3 µM) | – | – | – | – | – | – | – | – | –
COc1ccc(C2C(Cl)C(=O)N2NCc2nc3ccccc3c(=O)n2NC(=O)c2ccncc2)cc1 (stereo unspecified) | 250 (≈ 495 µM) | 200 (≈ 396 µM) | 125 (≈ 248 µM) | 500 (≈ 990 µM) | 62.5 (≈ 124 µM) | 500 (≈ 990 µM) | – | 200 (≈ 396 µM) | 250 (≈ 495 µM) | 200 (≈ 396 µM) | 500 (≈ 990 µM) | – | – | – | 98 | – | – | – | – | –
GENTAMICIN | – | 0.5 | 0.25 | 1 | 0.05 | 1 | – | – | – | – | 0.05 | – | – | – | – | 98 | – | – | – | –
O=C(Nn1c(CNN2C(=O)C(Cl)C2c2cccc([N+](=O)[O-])c2)nc2ccccc2c1=O)c1ccncc1 (stereo unspecified) | 200 (≈ 385 µM) | 500 (≈ 962 µM) | 500 (≈ 962 µM) | 250 (≈ 481 µM) | 500 (≈ 962 µM) | 250 (≈ 481 µM) | – | > 1000 | > 1000 | 1000 (≈ 1920 µM) | 250 (≈ 481 µM) | – | – | – | – | – | 97 | – | – | –
O=C(O)c1cn(C2CC2)c2cc(N3CCNCC3)c(F)cc2c1=O [CIPROFLOXACIN] | – | 50 (≈ 151 µM) | 50 (≈ 151 µM) | 25 (≈ 75.4 µM) | 25 (≈ 75.4 µM) | 25 (≈ 75.4 µM) | – | – | – | – | 25 (≈ 75.4 µM) | – | – | – | – | – | – | – | – | –
O=C(Nn1c(CNN2C(=O)C(Cl)C2c2ccccc2Cl)nc2ccccc2c1=O)c1ccncc1 (stereo unspecified) | 500 (≈ 982 µM) | 500 (≈ 982 µM) | 500 (≈ 982 µM) | 500 (≈ 982 µM) | 100 (≈ 196 µM) | 250 (≈ 491 µM) | – | 250 (≈ 491 µM) | 200 (≈ 393 µM) | 200 (≈ 393 µM) | 250 (≈ 491 µM) | – | – | 98 | – | – | – | – | – | –
O=C(Nn1c(CNN2C(=O)C(Cl)C2c2ccc(Cl)cc2)nc2ccccc2c1=O)c1ccncc1 (stereo unspecified) | 250 (≈ 491 µM) | 500 (≈ 982 µM) | 500 (≈ 982 µM) | 100 (≈ 196 µM) | 100 (≈ 196 µM) | 100 (≈ 196 µM) | – | 1000 (≈ 1960 µM) | 1000 (≈ 1960 µM) | 250 (≈ 491 µM) | 50 (≈ 98.2 µM) | – | – | – | – | – | – | 99 | – | –
NYSTATIN | – | – | – | – | – | – | – | 100 | 100 | 100 | – | – | – | – | – | – | – | – | – | –
CCc1ccc(C2C(Cl)C(=O)N2NCc2nc3ccccc3c(=O)n2NC(=O)c2ccncc2)cc1 (stereo unspecified) | 100 (≈ 199 µM) | 250 (≈ 497 µM) | 200 (≈ 398 µM) | 125 (≈ 249 µM) | 250 (≈ 497 µM) | 500 (≈ 994 µM) | – | > 1000 | > 1000 | 1000 (≈ 1990 µM) | 200 (≈ 398 µM) | – | – | 97 | – | – | – | – | – | –
O=C(Nn1c(CNN2C(=O)C(Cl)C2c2ccccc2[N+](=O)[O-])nc2ccccc2c1=O)c1ccncc1 (stereo unspecified) | 250 (≈ 481 µM) | 250 (≈ 481 µM) | 200 (≈ 385 µM) | 250 (≈ 481 µM) | 250 (≈ 481 µM) | 200 (≈ 385 µM) | – | 500 (≈ 962 µM) | 500 (≈ 962 µM) | 1000 (≈ 1920 µM) | 100 (≈ 192 µM) | – | 99 | – | – | – | – | – | – | –
CC1(C)S[C@@H]2[C@H](NC(=O)[C@H](N)c3ccccc3)C(=O)N2[C@H]1C(=O)O [AMPICILLIN] | – | 100 (≈ 286 µM) | 250 (≈ 715 µM) | 100 (≈ 286 µM) | 100 (≈ 286 µM) | 100 (≈ 286 µM) | – | – | – | – | 100 (≈ 286 µM) | – | – | – | – | – | – | – | 99 | –
O=C(Nn1c(CNN2C(=O)C(Cl)C2c2ccc(O)cc2)nc2ccccc2c1=O)c1ccncc1 (stereo unspecified) | 250 (≈ 509 µM) | 250 (≈ 509 µM) | 200 (≈ 407 µM) | 250 (≈ 509 µM) | 250 (≈ 509 µM) | 250 (≈ 509 µM) | – | > 1000 | > 1000 | 500 (≈ 1020 µM) | 250 (≈ 509 µM) | 97 | – | – | – | – | – | – | – | –
COC1=CC(=O)C[C@@H](C)[C@]12Oc1c(Cl)c(OC)cc(OC)c1C2=O [GRISEOFULVIN] | – | – | – | – | – | – | – | 100 (≈ 283 µM) | 100 (≈ 283 µM) | 500 (≈ 1420 µM) | – | – | – | – | – | – | – | – | – | –
CO[C@H]1/C=C/O[C@@]2(C)Oc3c(C)c(O)c4c(O)c(c(/C=N/N5CCN(C)CC5)c(O)c4c3C2=O)NC(=O)/C(C)=C\C=C\[C@H](C)[C@H](O)[C@@H](C)[C@@H](O)[C@@H](C)[C@H](OC(C)=O)[C@@H]1C [RIFAMPIN] | – | – | – | – | – | – | – | – | – | – | – | – | – | – | – | – | – | – | – | 98
NNC(=O)c1ccncc1 [ISONIAZID] | – | – | – | – | – | – | – | – | – | – | – | – | – | – | – | – | – | – | 99 | –
